Test results reported in patent US6005099A, “Glucosamine disaccharides, method for their preparation, pharmaceutical composition comprising same, and their use” (priority 1993, dated 1999).
≈ marks a conversion by molar mass, not a printed value. Entries after “also recorded” stand apart in the source; their conditions may differ. Counter-ions that a name gives are not always drawn.

Legend:
protease in LAL [1] = test: Endotoxicity, chromogenic LAL test; assay type: biochemical, Limulus polyphemus; details: ng LPS per ng product, n = 1-10
Protocol: (§1) The endotoxicity and the biological activity of disaccharide A (example 1) and of disaccharide B (example 2) were determined and compared to that of lipopolysaccharide originating from Escherichia coli O111:B4 (Sigma, Product No. L3024), lipid A (Sigma, Product No. L5399; used as a starting material in example 4), and 3-O-deacylated lipid A originating from lipid A of Escherichia coli F583 (prepared as in the comparative example), but without purification by HPLC.
(§2) The endotoxicity was determined in the Limulus amoebocyte lysate (LAL) test. This test is based on the observation that endotoxins induce coagulation of the hemolymph of Limulus polyphemus.
(§3) The endotoxicity was also measured in the chromogenic test, in which the activation of a protease in LAL by LPS was measured using a chromogen (Ac-Ile-Glu-Ala-Arg-pNA; Bio Whittaker Kit No. 50-650U). The colour formation (liberation of pNA (p-nitroaniline)) was measured at 405 nm.
(§4) Samples were pre-incubated at 37° C. during 10 minutes and subsequently chromogen-comprising LAL was added. The time required for reaching an optical density of 0.2 at 405 nm was measured. The endotoxin activity was calculated in comparison to a reference curve obtained for LPS standards.
(§5) The results are expressed in table 3 as: ng LPS per ng product.

[2] = system: Limulus amoebocyte lysate (LAL); test: Endotoxicity in the limulus amoebocyte lysate (LAL) test (gelification and chromogenic); assay type: biochemical, Limulus polyphemus
Protocol: as §1, §2
(§6) In the gelification test serial dilutions of the compound to be tested were mixed with LAL 1:1, (v/v) (Haemachem Inc., sensitivity LAL 0.06 endotoxin units/ml), and the mixture was incubated for one hour at 37° C. Then gel formation was monitored by measuring the optical density at 405 nm. The last dilution which formed a gel was determined by inverting the reaction microplate. The endotoxin activity in the samples was determined by comparison with dilutions of a lipopolysaccharide standard (1 endotoxin unit=0.1 ng LPS).
The endotoxicity was also measured in the chromogenic test, in which the activation of a protease in LAL by LPS was measured using a chromogen (Ac-Ile-Glu-Ala-Arg-pNA; Bio Whittaker Kit No. 50-650U). […]

[3] = system: Limulus amoebocyte lysate (LAL); test: Endotoxicity, LAL gelification test; assay type: biochemical, Limulus polyphemus; details: ng LPS per ng product, n = 2-12
Protocol: as §1, §2, §6, §5

[4] = system: macrophages of C57BL/6 mice; test: Nitric oxide (NO) production in supernatants of macrophages; assay type: cell-based
Protocol: Bone marrow was collected from hip, femur and tibia of six week old male C57BL/6 mice.
After 7 days the mature macrophages were collected and resuspended in Dulbecco modified medium comprising 5% foetal calf serum to a concentration of 7×10^6 cells per ml. This cell suspension was mixed 1:1, (v/v) with samples diluted in the same medium and used in the biological tests performed in microplates with 70,000 cells/well (incubation at 37° C. for 22 hours, 100% humidity and 8% CO2).
Nitric oxide (NO) is produced by macrophages in response to bacterial infection and in particular LPS. NO seems to have cytostatic and cytotoxic properties. NO is extremely reactive and rapidly converted by oxidation into nitrite and nitrate.
The nitrite formation was determined using the Griess test (addition of 1:1, (v/v) N-(1-naphthyl)ethylene diamine hydrochloride [1 g/l in water] and p-aminobenzenesulphonamide [10 g/l in 5% H3 PO4 ]). The nitrite concentration in supernatants of activated macrophages was calculated in comparison to NaNO2 standards.

protease in LAL [5] = test: Endotoxicity, chromogenic LAL test with 0.1 mg/ml bovine serum albumin; assay type: biochemical, Limulus polyphemus; details: n=4 or 6
Protocol: as §3, §4
The endotoxicity of the disaccharides E, F and G was determined using the chromogenic LAL test (see infra). However, instead of using 1 mg/ml bovine serum albumin, 0.1 mg/ml has been used. The results (n=4 or 6) were obtained in two series of experiments and are shown hereafter.

[6] = system: murine peritoneal macrophages; test: Stimulation of nitrite production in murine peritoneal macrophages; assay type: cell-based; details: quantity determined by HPLC absorption vs disaccharide A
Protocol: The biological activity of the fractions was tested by the stimulation of nitrite production in murine peritoneal macrophages as described hereinbefore.
The quantity of each analogue in the stock solution was determined from the absorption on HPLC with reference to that of disaccharide A. The fractions show activities of the same order as disaccharide A (FIG. 8). […] The position of the acyloxyacyl, 2 versus 2', has only a minor influence on the activity.
In order to eliminate the possibility that activity was due to contamination of the samples by other substances such as LPS, disaccharides E, F, G and H were repurified on reversed-phase HPLC and the regions of the HPLC baseline just before and just after the peak were also collected and treated in the same way as the fractions containing the peaks of material. The activity of the peak fractions and the baseline fractions was tested. […] The stimulation of nitrite production is thus specifically associated with the lipid A analogues.

Solubility in water = assay type: physicochemical; details: sodium salt

## CCCCCCCCCCCCCC(=O)O[C@H](CCCCCCCCCCC)CC(=O)N[C@H]1[C@H](OC[C@H]2O[C@H](OP(=O)(O)O)[C@H](NC(=O)C[C@H](O)CCCCCCCCCCC)[C@@H](O)[C@@H]2O)O[C@H](CO)[C@@H](OP(=O)(O)O)[C@@H]1O [disaccharide B, 2-Deoxy-6-O-[2-deoxy-2-[(R)-3-tetradecanoyloxytetradecanoylamino]-4-O-phosphono-β-D-glucopyranosyl]-2-[(R)-3-hydroxytetradecanoylamino]-α-D-glucopyranosyl dihydrogenphosphate]
Protease in LAL [1]
  Endotoxic activity in LAL, chromogen: 0.0008 ng/ng
[2]
  Endotoxicity in LAL, in words: lowest endotoxicity
[3]
  Endotoxic activity in LAL, gelification: 0.004 ± 0.002 ng/ng
[4]; Mus musculus, Macrophage, product concentration corresponding to 50% activity, 22 hours, 37° C.
  EC50: 0.05 µg/mL (≈ 0.043 µM)
[4]; Mus musculus, Macrophage, product concentration corresponding to induced NO activity, 22 hours, 37° C., read-out: NO production: Minimum activity (product concentration)
  minimal effective concentration: 0.0005 µg/mL
[4]; extrapolated from the series dilution curve
  NO activity at 50% in nmol of NO2- /ml: 5 nmol of NO2- /ml
[4]; macrophages of C57BL/6 mice
  NO production, in words: induce NO production of the same order; also recorded: as strongly as lipid A and 3-O-deacylated lipid A
[4]; product concentration corresponding to induced NO activity, 22 hours, 37° C.
  NO production: Maximum activity (product concentration): 16 µg/mL

## CCCCCCCCCC[C@H](O)C(=O)O[C@H](CCCCCCCCC)CC(=O)N[C@H]1[C@H](OC[C@H]2O[C@H](OP(=O)(O)O)[C@H](NC(=O)C[C@H](O)CCCCCCCCC)[C@@H](O)[C@@H]2O)O[C@H](CO)[C@@H](OP(=O)(O)O)[C@@H]1O [disaccharide E, 2-Deoxy-6-O-[2-deoxy-2-[(R)-3-[(S)-2-hydroxydodecanoyloxy]-dodecanoylamino]-4-O-phosphono-β-D-glucopyranosyl]-2-[(R)-3-hydroxydodecanoylamino]-α-D-glucopyranosyl dihydrogenphosphate]
Protease in LAL [5]
  Endotoxic activity in LAL: 0.000005 ± 0.000002 mg/mg

## CCCCCCCCCC[C@H](O)C(=O)O[C@H](CCCCCCCCC)CC(=O)N[C@H]1[C@@H](OP(=O)(O)O)O[C@H](CO[C@@H]2O[C@H](CO)[C@@H](OP(=O)(O)O)[C@H](O)[C@H]2NC(=O)C[C@H](O)CCCCCCCCC)[C@@H](O)[C@@H]1O [disaccharide F, 2-Deoxy-6-O-[2-deoxy-2-[(R)-3-hydroxydodecanoylamino]-4-O-phosphono-β-D-glucopyranosyl]-2-[(R)-3-[(S)-2-hydroxydodecanoyloxy]-dodecanoylamino]-α-D-glucopyranosyl dihydrogenphosphate]
Protease in LAL [5]
  Endotoxic activity in LAL: 0.000025 ± 0.000026 mg/mg

## CCCCCCCCCCCC(=O)O[C@H](CCCCCCCCC)CC(=O)N[C@H]1[C@H](OC[C@H]2O[C@H](OP(=O)(O)O)[C@H](NC(=O)C[C@H](O)CCCCCCCCC)[C@@H](O)[C@@H]2O)O[C@H](CO)[C@@H](OP(=O)(O)O)[C@@H]1O [disaccharide G, 2-Deoxy-6-O-[2-deoxy-2-[(R)-3-dodecanoyloxydodecanoylamino]-4-O-phosphono-β-D-glucopyranosyl]-2-[(R)-3-hydroxydodecanoylamino]-α-D-glucopyranosyl dihydrogenphosphate]
Protease in LAL [5]
  Endotoxic activity in LAL: 0.00006 ± 0.00003 mg/mg

## CCCCCCCCCCCC(=O)O[C@H](CCCCCCCCC)CC(=O)N[C@H]1[C@H](OC[C@H]2O[C@H](OP(=O)(O)O)[C@H](NC(=O)C[C@@H](CCCCCCCCC)OC(=O)[C@@H](O)CCCCCCCCCC)[C@@H](O)[C@@H]2O)O[C@H](CO)[C@@H](OP(=O)(O)O)[C@@H]1O [disaccharide H, 2-Deoxy-6-O-[2-deoxy-2-[(R)-3-dodecanoyloxydodecanoylamino]-4-O-phosphono-β-D-glucopyranosyl]-2-[(R)-3-[(S)-2-hydroxydodecanoyloxy]-dodecanoylamino]-α-D-glucopyranosyl dihydrogenphosphate]
[6]
  Stimulation of nitrite production, in words: most active

## CCCCCCCCCCCC(=O)O[C@H](CCCCCCCCCCC)CC(=O)N[C@H]1[C@H](OC[C@H]2O[C@H](OP(=O)(O)O)[C@H](NC(=O)C[C@H](O)CCCCCCCCCCC)[C@@H](O)[C@@H]2O)O[C@H](CO)[C@@H](OP(=O)(O)O)[C@@H]1O [sodium salt]
Solubility in water
  Solubility in water, in words: freely soluble in water
  solubility: ≥ 100 mg/mL
